Literature values as cited in patent US20230330230A1, “SENSITISER FOR CANCER TREATMENT” (KORTUC INC, priority 2020, published 2023).

What was measured:
[1] = test system: osteosarcoma (HS-Os-1) cell line
[2] = test system: prostate cancer (PC-3) cell line
[3] = 0.1 mM H2O2 prior to IR, without DNA double strand breaks

## OO [H2O2, hydrogen peroxide]
[1]
  response to H2O2 alone: extreme resistance
[1]; [3]
  effect of H2O2 prior to IR: enhanced cytotoxicity
[2]
  response to H2O2 alone: extreme resistance
[2]; [3]
  effect of H2O2 prior to IR: enhanced cytotoxicity
